# Data: patent US12612410B2 (CHILDREN'S HOSPITAL MEDICAL CENTER, priority 2020, dated 2026)
# Biological target: T1, FLT3 D835V (Homo sapiens, UniProt P36888, D835V)
# T1 construct: host or cells: E. coli BL21-derived host (T7 phage) or HEK-293
# T1 sequence (P36888 27-993 D835V): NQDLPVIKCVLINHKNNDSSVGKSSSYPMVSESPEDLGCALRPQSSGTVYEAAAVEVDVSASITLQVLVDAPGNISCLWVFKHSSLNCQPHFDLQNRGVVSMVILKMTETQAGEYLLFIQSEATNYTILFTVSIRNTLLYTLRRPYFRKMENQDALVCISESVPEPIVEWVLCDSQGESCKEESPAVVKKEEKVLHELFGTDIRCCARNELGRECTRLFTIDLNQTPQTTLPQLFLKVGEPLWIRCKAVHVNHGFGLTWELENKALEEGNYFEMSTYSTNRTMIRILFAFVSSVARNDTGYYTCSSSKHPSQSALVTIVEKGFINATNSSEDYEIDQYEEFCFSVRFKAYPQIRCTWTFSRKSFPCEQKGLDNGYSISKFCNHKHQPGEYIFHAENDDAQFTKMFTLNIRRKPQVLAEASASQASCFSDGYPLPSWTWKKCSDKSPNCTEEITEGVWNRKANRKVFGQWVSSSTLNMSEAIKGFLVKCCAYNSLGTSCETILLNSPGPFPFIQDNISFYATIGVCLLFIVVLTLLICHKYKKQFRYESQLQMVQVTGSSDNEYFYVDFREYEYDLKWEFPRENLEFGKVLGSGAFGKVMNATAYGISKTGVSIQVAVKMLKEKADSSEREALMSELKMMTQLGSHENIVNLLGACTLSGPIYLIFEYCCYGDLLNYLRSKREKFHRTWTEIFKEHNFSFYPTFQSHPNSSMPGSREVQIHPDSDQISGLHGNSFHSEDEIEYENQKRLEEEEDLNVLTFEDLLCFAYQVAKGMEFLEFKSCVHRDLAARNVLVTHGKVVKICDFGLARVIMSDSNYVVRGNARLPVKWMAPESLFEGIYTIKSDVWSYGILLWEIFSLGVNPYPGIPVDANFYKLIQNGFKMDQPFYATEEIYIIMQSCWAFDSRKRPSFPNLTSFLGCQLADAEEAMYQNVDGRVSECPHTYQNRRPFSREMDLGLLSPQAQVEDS
# Assay: DiscoverX KINOMEscan competition binding, FLT3 D835V
# Excerpt: Kinase binding data were obtained for various exemplary compounds prepared according to Examples 1-24 using the DiscoverX KINOMVIEscan® active site-directed competition binding site-directed assay protocol described below. […] As a result, the data report thermodynamic interaction affinities (Kd values), rather than IC50 values that are dependent on ATP concentrations. The assay uses a DNA-tagged version of the protein kinase, and an immobilized ligand bound to a solid support. Compounds that directly or indirectly prevent kinase binding to the immobilized ligand reduce the amount of kinase captured on the solid support, which is detected using an ultra-sensitive qPCR method. Affinity constants reported from the assay have been reported to be independent of the immobilized ligand used that is coupled to the solid support (See supplemental information in Fabian, M. A. et. al., (2005) Nat. Biotechnol. 23, 329-336; Wodicka, L. M. et. al., (2010) Chem. Biol. 17, 1241-1249.)
# Kinase-tagged T7 phage strains were prepared in an E. coli host derived from the BL21 strain. E. coli were grown to log-phase and infected with T7 phage and incubated with shaking at 32° C. until lysis. The lysates were centrifuged and filtered to remove cell debris. The remaining kinases were produced in HEK-293 cells and subsequently tagged with DNA for qPCR detection. Streptavidin-coated magnetic beads were treated with biotinylated small molecule ligands for 30 minutes at room temperature to generate affinity resins for kinase assays. The liganded beads were blocked with excess biotin and washed with blocking buffer (SeaBlock (Pierce), 1% BSA, 0.05% Tween 20, 1 mM DTT) to remove unbound ligand and to reduce non-specific binding. Binding reactions were assembled by combining kinases, liganded affinity beads, and test compounds in 1× binding buffer (20% SeaBlock, 0.17×PBS, 0.05% Tween 20, 6 mM DTT). Test compounds were prepared as 111× stocks in 100% DMSO. Kds were determined using an 11-point 3-fold compound dilution series with three DMSO control points. All compounds for Kd measurements are distributed by acoustic transfer (non-contact dispensing) in 100% DMSO. The compounds were then diluted directly into the assays such that the final concentration of DMSO was 0.9%. All reactions were performed in polypropylene 384-well plates. Each was a final volume of 0.02 mL. The assay plates were incubated at room temperature with shaking for 1 hour and the affinity beads were washed with wash buffer (1×PBS, 0.05% Tween 20). The beads were then re-suspended in elution buffer (1×PBS, 0.05% Tween 20, 0.5 μM nonbiotinylated affinity ligand) and incubated at room temperature with shaking for 30 minutes. The kinase concentration in the eluates was measured by qPCR.
# Binding constants (Kds) were calculated with a standard dose-response curve using the Hill equation. The Hill Slope was set to −1. Curves were fitted using a non-linear least square fit with the Levenberg-Marquardt algorithm.
row,Compound,Kd
1,"FC(F)c1cn2c(-c3cccc(N[C@H]4CNC[C@@H]4F)n3)cnc2cn1 [Compound 16, 6-(6-(difluoromethyl)imidazo[1,2-a]pyrazin-3-yl)-N-((3S,4S)-4-fluoropyrrolidin-3-yl)pyridin-2-amine]",0.066 nM
2,"F[C@H]1CNC[C@@H]1Nc1cccc(-c2cnc3cnc(C4CC4)cn23)n1 [Compound 50, 6-(6-cyclopropylimidazo[1,2-a]pyrazin-3-yl)-N-((3S,4S)-4-fluoropyrrolidin-3-yl)pyridin-2-amine]",0.015 nM
3,"CC1(c2cn3c(-c4cccc(N[C@H]5CNCC56CC6)n4)cnc3cn2)CC1 [Compound 5, (R)-N-(6-(6-(1-methylcyclopropyl)imidazo[1,2-a]pyrazin-3-yl)pyridin-2-yl)-5-azaspiro[2.4]heptan-7-amine]",0.013 nM
4,"FC(F)c1cn2c(-c3cccc(N[C@H]4CNCC[C@@H]4F)n3)cnc2cn1 [Compound 25, 6-(6-(difluoromethyl)imidazo[1,2-a]pyrazin-3-yl)-N-((3S,4S)-4-fluoropiperidin-3-yl)pyridin-2-amine]",0.036 nM
5,"CC1(c2cn3c(-c4cccc(N[C@@H]5CCNC5)n4)cnc3cn2)CC1 [Compound 3, (R)-6-(6-(1-methylcyclopropyl)imidazo[1,2-a]pyrazin-3-yl)-N-(pyrrolidin-3-yl)pyridin-2-amine]",0.023 nM
6,"Cn1cc(-c2cn3c(-c4cccc(N[C@H]5CNC[C@@H]5F)n4)cnc3cn2)cn1 [Compound 52, N-((3S,4S)-4-fluoropyrrolidin-3-yl)-6-(6-(1-methyl-1H-pyrazol-4-yl)imidazo[1,2-a]pyrazin-3-yl)pyridin-2-amine]",0.011 nM
7,"CC(C)(O)c1cn2c(-c3cccc(N[C@H]4CNCC[C@@H]4F)n3)cnc2cn1 [Compound 31, 2-(3-(6-(((3S,4S)-4-fluoropiperidin-3-yl)amino)pyridin-2-yl)imidazo[1,2-a]pyrazin-6-yl)propan-2-ol]",0.17 nM
8,"CC(C)(O)c1cn2c(-c3cccc(N[C@@H]4CCCNC4)n3)cnc2cn1 [Compound 30, (R)-2-(3-(6-(piperidin-3-ylamino)pyridin-2-yl)imidazo[1,2-a]pyrazin-6-yl)propan-2-ol]",0.36 nM
9,"FC(F)(F)C1(c2cn3c(-c4cccc(N[C@@H]5CCNC5)n4)cnc3cn2)CC1 [Compound 10, (R)-N-(pyrrolidin-3-yl)-6-(6-(1-(trifluoromethyl)cyclopropyl)imidazo[1,2-a]pyrazin-3-yl)pyridin-2-amine]",0.083 nM
10,"CC1(c2cn3c(-c4cccc(N[C@H]5CNC[C@@H]5F)n4)cnc3cn2)CC1 [Compound 1, N-((3S,4S)-4-fluoropyrrolidin-3-yl)-6-(6-(1-methylcyclopropyl)imidazo[1,2-a]pyrazin-3-yl)pyridin-2-amine]",0.015 nM
11,"FC(F)(F)COc1cn2c(-c3cccc(N[C@@H]4CCNC4)n3)cnc2cn1 [Compound 38, (R)-N-(pyrrolidin-3-yl)-6-(6-(2,2,2-trifluoroethoxy)imidazo[1,2-a]pyrazin-3-yl)pyridin-2-amine]",0.12 nM
